The source of these data is patent US7851487B2, “Use of tetrahydropyridines in the treatment of central nervous system disorders” (The Research Foundation of State University of New York, priority 2006, dated 2010).

Assay [1] has as its target Dopamine D1 (Homo sapiens, UniProt P21728). Description: Radioligand binding, Dopamine D1. Particulars: Dopamine D1, 10 μM; read-out: Percentage Inhibition. The procedure:
(§1) The assays utilized human neuroreceptors and were performed under the experimental parameters set forth in Table 2 using standard techniques.
(§2) For Table 3, IC50 values were determined by non-linear, least squares regression analysis using Data Analysis Toolbox™ (MDL Information Systems, San Leandro, Calif., USA). Inhibition constants (KI) were calculated using the equation of Cheng and Prusoff (Cheng, Y., et al. Biochem. Pharmacol. 22:3099-3108, 1973) using the observed IC50 of the tested compound, the concentration of radioligand employed in the assay, and the values for the KD of the ligand. The Hill coefficient (nH), defining the slope of the competitive binding curve, was calculated using the Data Analysis Toolbox™. Biochemical assay results are presented as the percent inhibition of specific binding or activity unless indicated otherwise. The experiments summarized in Table 3 utilized human dopamine D1, D2 s, D21, D3, D4.2, D4.4, serotonin 5HT1A, 5HT2A, 5HT2C, 5HT6, 5HT7, dopamine transporter (DAT), serotonin transporter (SERT) and the norepinephrine transporter (NET), as indicated in Table 3.

Assay [2] concerns the target T1, Dopamine D2s (Homo sapiens, UniProt P14416).
T1 construct: host or cells: CHO cells
Briefly: Radioligand binding, Dopamine D2S ([3H]Spiperone). The protocol: as §1, §2

The target in assay [3] is T2, Dopamine D4.4 (Homo sapiens, UniProt P21917).
T2 construct: host or cells: CHO-K1 cells
T2 sequence (P21917 1-419): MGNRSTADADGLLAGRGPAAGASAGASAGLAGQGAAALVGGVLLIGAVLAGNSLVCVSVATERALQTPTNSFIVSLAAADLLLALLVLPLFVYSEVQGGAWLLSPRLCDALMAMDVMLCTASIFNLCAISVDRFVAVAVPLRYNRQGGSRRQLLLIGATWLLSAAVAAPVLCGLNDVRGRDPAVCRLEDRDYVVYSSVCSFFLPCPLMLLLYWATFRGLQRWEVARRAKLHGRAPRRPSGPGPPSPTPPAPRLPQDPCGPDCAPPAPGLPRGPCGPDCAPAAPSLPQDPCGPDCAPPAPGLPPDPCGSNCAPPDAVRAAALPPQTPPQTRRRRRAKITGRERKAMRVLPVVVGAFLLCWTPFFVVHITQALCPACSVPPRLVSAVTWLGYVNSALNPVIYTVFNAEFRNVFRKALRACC
Briefly: Radioligand binding, Dopamine D4.4 ([3H]Spiperone). The protocol:
as §1, §2

Assay [4] has as its target T3, Serotonin 5HT1A (Homo sapiens, UniProt P08908).
T3 sequence (P08908 1-422): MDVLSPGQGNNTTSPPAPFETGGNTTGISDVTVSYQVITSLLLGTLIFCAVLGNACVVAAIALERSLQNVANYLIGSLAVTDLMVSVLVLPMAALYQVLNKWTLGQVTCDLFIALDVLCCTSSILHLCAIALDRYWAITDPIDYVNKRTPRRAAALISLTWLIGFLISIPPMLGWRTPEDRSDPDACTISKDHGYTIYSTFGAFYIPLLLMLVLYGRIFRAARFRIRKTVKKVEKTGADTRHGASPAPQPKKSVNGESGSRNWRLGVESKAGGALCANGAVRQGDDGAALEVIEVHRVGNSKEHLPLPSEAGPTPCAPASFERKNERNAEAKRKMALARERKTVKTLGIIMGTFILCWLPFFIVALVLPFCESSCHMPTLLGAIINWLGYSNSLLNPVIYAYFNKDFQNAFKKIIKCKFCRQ
Briefly: Radioligand binding, Serotonin 5HT1A. As to conditions: read-out: Percentage Inhibition. The procedure:
as §1, §2

The target in assay [5] is T4, Serotonin 5HT7 (Homo sapiens, UniProt P34969).
T4 construct: host or cells: CHO cells
T4 sequence (P34969 whole entry): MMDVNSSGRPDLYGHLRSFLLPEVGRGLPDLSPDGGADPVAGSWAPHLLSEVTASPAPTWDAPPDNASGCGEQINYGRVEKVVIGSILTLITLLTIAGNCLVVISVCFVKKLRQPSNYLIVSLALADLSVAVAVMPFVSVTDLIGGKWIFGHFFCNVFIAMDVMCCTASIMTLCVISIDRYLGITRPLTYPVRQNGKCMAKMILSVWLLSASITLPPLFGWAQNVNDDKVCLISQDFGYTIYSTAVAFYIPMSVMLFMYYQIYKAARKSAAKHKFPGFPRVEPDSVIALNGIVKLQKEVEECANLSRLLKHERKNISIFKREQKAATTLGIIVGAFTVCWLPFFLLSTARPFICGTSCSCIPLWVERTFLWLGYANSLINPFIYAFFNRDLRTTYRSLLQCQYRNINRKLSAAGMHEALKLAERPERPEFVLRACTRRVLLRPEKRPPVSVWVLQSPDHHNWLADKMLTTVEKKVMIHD
Briefly: Radioligand binding, Serotonin 5HT7 ([3H]LSD). The protocol:
as §1, §2

The target in assay [6] is T5, Serotonin transporter (SERT) (Homo sapiens, UniProt P31645).
T5 construct: host or cells: HEK-293 cells
T5 sequence (P31645 whole entry): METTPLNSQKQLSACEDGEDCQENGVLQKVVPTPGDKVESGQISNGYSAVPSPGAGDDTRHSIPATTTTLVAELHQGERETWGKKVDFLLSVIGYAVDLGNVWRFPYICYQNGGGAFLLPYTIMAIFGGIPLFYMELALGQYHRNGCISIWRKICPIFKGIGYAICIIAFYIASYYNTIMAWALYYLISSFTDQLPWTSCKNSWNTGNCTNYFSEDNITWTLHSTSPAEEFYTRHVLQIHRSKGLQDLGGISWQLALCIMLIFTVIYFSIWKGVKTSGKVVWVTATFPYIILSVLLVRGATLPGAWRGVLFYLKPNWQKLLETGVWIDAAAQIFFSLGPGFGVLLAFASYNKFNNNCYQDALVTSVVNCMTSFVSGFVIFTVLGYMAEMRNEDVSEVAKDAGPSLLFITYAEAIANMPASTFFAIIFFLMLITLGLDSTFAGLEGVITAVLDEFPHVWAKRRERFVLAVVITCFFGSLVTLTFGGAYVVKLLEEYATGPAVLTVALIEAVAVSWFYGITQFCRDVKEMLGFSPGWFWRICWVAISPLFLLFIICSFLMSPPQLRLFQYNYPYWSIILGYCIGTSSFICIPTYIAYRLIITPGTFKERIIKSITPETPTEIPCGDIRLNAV
Briefly: Radioligand binding, Serotonin transporter (SERT) ([3H]Paroxetine). The procedure:
as §1, §2

T1 sequence (P14416 1-414 isoform P14416-2): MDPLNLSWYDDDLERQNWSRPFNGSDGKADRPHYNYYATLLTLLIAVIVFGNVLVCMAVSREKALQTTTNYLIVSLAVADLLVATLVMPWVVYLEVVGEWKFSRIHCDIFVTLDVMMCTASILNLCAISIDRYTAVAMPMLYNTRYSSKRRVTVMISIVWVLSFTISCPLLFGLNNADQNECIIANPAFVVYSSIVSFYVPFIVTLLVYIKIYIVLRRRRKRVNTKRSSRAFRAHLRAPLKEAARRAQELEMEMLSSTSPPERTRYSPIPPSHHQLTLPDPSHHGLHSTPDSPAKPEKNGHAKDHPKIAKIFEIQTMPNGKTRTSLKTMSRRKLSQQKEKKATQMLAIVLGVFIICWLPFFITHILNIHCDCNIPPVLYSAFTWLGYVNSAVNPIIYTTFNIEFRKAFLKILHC
Dopamine D1, sequence (P21728 whole entry): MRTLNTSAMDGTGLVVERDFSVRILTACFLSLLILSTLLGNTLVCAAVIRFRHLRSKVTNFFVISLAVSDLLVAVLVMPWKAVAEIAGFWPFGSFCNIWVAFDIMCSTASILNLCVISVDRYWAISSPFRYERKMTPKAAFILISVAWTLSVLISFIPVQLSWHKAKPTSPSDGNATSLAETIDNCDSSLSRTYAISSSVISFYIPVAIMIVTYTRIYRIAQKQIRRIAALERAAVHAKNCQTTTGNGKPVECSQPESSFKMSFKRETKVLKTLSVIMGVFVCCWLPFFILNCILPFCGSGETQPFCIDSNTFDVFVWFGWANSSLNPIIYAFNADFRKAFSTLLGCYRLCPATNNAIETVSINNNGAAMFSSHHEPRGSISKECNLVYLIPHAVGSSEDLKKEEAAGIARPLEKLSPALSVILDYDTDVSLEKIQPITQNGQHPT

As a reminder, the inhibition is the share of the control response that was lost under treatment. The term IC50 denotes the concentration at which inhibition is half-maximal. A low value points to inhibition by little substance. In general, Ki refers to a measure of affinity in units of concentration, obtained from inhibition or displacement. With `COC(=O)[C@@H](c1ccc(-c2ccccc2)cc1)[C@H]1C=CCCN1` [Compound 2], the inhibition at 10 µM in assay [1] stood at 17%; in assay [2] (Dopamine D2s, 10 μM, read-out: Percentage Inhibition), 26%; in assay [4], 13%; in assay [6] (Serotonin transporter (SERT), 10 μM, read-out: Percentage Inhibition) it was 48%. Further, the IC50 in assay [2] was found to be 51.8 µM; in assay [3], 66.7 µM; in assay [5], 25.8 µM; in assay [6], 14.3 µM. Further, the Ki is 18.7 µM in assay [2], 18.5 µM in assay [3], 14.8 µM in assay [5] and 2.33 µM in assay [6]. Also, the inhibition at 100 µM in assay [2] (Dopamine D2s, 100 μM, read-out: Percentage Inhibition) was found to be 62%. Besides, the nH worked out at 0.788 in assay [2] (Dopamine D2s, Hill coefficient); 1.01 in assay [3] (Dopamine D4.4, Hill coefficient); 0.774 in assay [5] (Serotonin 5HT7, Hill coefficient); 1.24 in assay [6] (Serotonin transporter (SERT), Hill coefficient). Further, the “Percentage Inhibition” value in assay [3] (Dopamine D4.4, concentration 100 (unit not given)) was determined as 62%. The inhibition at 30 µM came to 53% in assay [5] (Serotonin 5HT7, 30 μM, read-out: Percentage Inhibition) and 70% in assay [6] (Serotonin transporter (SERT), 30 μM, read-out: Percentage Inhibition).
